{"source": "patent US8445291B2", "about": "“Method for detecting target substance, and tag, DNA, vector, probe and detection kit for use therewith” (National University Corporation Tokyo Medical and Dental …, priority 2007, dated 2013)", "key": {"[1]": {"system": "fused protein of DsRed and PKC having at its N terminal end a tag polypeptide indicated by sequence (A)", "assay": "Localization of PKC in cytoplasm (DsRed fluorescence)", "format": "cell-based", "conditions": "CHO.K1 cells treated for 10 min, final concentration 10 μM; 515 nm to 560 nm", "description": "(§1) Separately, before treated with the permeabilization buffer, the above-prepared CHO.K1 cells were treated for 10 min with 10 mM DMSO containing PDBu (phorbol 12,13 dibutyrate; final concentration: 10 μM). The cells were observed by the fluorescence microscope similar to the above.\nThe following was used as a control; a group which was not treated with PDBu, and CHO.K1 cells to which only DIC was introduced (note that DIC is a vector used for introducing into cells the above-mentioned fused protein of DsRed and PKC having at its N terminal end a tag polypeptide indicated by sequence (A). The cells were observed as mentioned above at predetermined wavelength (515 nm to 560 nm). The results are shown in FIG. 11."}, "[2]": {"system": "fused protein of DsRed and PKC having at its N terminal end a tag polypeptide of sequence (A)", "assay": "Imaging of PKC in cytoplasm of CHO.K1 cells through formation of tag-probe complex (observation of NBD)", "format": "cell-based", "description": "CHO.K1 cells expressing a fused protein of DsRed and PKC having at its N terminal end a tag polypeptide of sequence (A) as indicated below were prepared using Lipofectamin LTX (Invitrogen).\nSubsequently, a permeabilization buffer (20 mM Hepes, pH 7.4, 140 mM KCl, 50 μg/mL saponin, 5 mM oxalic acid) was added to the thus-prepared CHO.K1 cells. After left to stand on ice for 10 min, the cells were washed with PBS, followed by incubating on ice for 20 min in PBS. Thereafter, the cells were incubated in PBS at room temperature for 2 min and then 37° C. for 2 min. Further, the cells were incubated at 37° C. for 30 min in a conditioned medium (Ham's F12) to which a probe indicated by sequence (B) (probe concentration: 1 μM (Final conc.)) had been added.\nThe medium was changed to a DMEM with no phenol red, and then, the cells were observed by a fluorescence microscope (IX81 (Olympus), objective lens: 20 times) at predetermined emission wavelength (490 nm to 510 nm).\nas §1"}, "[3]": {"system": "probe peptide", "assay": "Fluorescence titration in cell lysate", "format": "binding", "conditions": "HeLa cell lysate, 0.1 to 4.0 equivalents of tag peptide", "description": "Fluorescence titration was performed for the tag polypeptides and the robe polypeptides of Example 1 in a cell lysate.\n10 mL of a HeLa cell culture solution containing 1.0×10^6 cells/mL were dispensed in a centrifugal tube and the cells were centrifuged for 5 minutes at 1000 rpm to obtain a pellet of HeLa cells. The pellet was dispersed in 1 mL HEPES buffer and the dispersion was sonicated for 10 minutes. Subsequently, the dispersion was filtered through a membrane filter to remove undesired materials and thus give a cell lysate. The probe peptide was dissolved in the cell lysate to a concentration of […]. To this solution, a tag peptide solution was added dropwise until the solution contained 0.1 to 4.0 equivalents of the tag peptide. The resulting solution was subjected to fluorescence spectroscopy.\nIn FIG. 9, the horizontal axis represents fluorescence wavelength whereas the vertical axis represents fluorescence intensity"}, "[4]": {"system": "probe peptide", "assay": "Fluorescence titration of probe peptide with tag peptide (HEPES buffer), incl. Job's plot", "format": "binding", "conditions": "for fluorescence wavelength ultimately shifted to on addition of tag peptide: 0.5 μM probe peptide, 0.1 to 2.0 equivalents of tag peptide; for Kd: tag peptide to probe peptide, theoretical formula assuming 1 to 1 interaction, fluorescence at 505 nm, read-out: dissociation constant Kd", "description": "Fluorescence titration was performed for the tag polypeptides and the probe polypeptides of Examples 1 to 3.\nIn the fluorescence titration, the rate of change of the fluorescence intensity at 505 nm was plotted against the concentration of the tag peptide and the dissociation constant was calculated from a theoretical formula assuming 1 to 1 binding of the tag peptide to the probe peptide.\nIn Example 1, the fluorescence intensity at 505 nm in the presence of 1 equivalent of tag peptide was 18 times as high as that measured in the absence of the tag peptide.\nAlso in the fluorescence titration, with the total concentration of the tag peptide and the probe peptide being fixed at 1.0 μM, the ratio of the respective concentrations of the tag peptide and the probe peptide was varied and the fluorescence intensity at 505 nm was measured. The measured fluorescence intensity was plotted against the ratio of the tag peptide concentration to the total concentration of the tag peptide and the probe peptide and was analyzed by the theoretical formula assuming 1 to 1 binding of the tag peptide to the probe peptide."}, "[5]": {"assay": "Circular dichroism spectroscopy of tag peptide, probe peptide and tag-probe mixture", "format": "physicochemical", "conditions": "for probe peptides that formed an α-helix structure: probe peptide alone; for tag peptides that formed an α-helix structure: tag peptide alone", "description": "The circular dichroism spectrum of the tag polypeptides and the probe polypeptides of Examples 1 to 3 were measured.\nThe structures of the tag peptide, the probe peptide and the tag-probe complex were analyzed by circular dichroism spectroscopy.\nIn each of FIGS. 3A to 3C, the horizontal axis represents wavelength used for measurement whereas the vertical axis represents molar residue ellipticity."}, "[6]": {"system": "tag peptide represented by structural formula (8)", "assay": "Crosslink reaction of chloroacetylated probe peptide with tag peptide", "format": "biochemical", "conditions": "10 minutes after start, 1.0 μM tag and 1.0 μM probe, 25° C., pH 7.2", "description": "The probe peptide for crosslink reaction obtained in Example 7 was used to perform a crosslink reaction.\nThe probe peptide was crosslinked to a tag peptide represented by the following structural formula (8). The tag polypeptide is identical to that used in Example 1.\nTo a 1.0 μM tag peptide solution (50 mM HEPES buffer (pH 7.2, 10 mM NaCl)), the probe peptide was added to a concentration of 1.0 μM and the reaction was carried out at 25° C.-1 mL samples were collected from the reaction mixture after 1, 5, 10, 15, 20 and 30 minutes. 1 mL of a 10% aqueous acetic acid solution was added to each sample to quench the reaction. The samples were analyzed by HPLC using a C18 reversed-phase analytical column (4.6×250 mm). The crosslinked product was identified by ESI-TOF MS. The yield of the reaction was calculated from the peak area ratio of HPLC.\nIn FIG. 10, the horizontal axis represents elapsed time after addition of the probe peptide whereas the vertical axis represents the yield of the crosslink reaction."}}, "data": [{"compound": "CCCC(=O)O[C@@H]1[C@@H](C)[C@@]2(O)[C@@H](C=C(CO)C[C@]3(O)C(=O)C(C)=C[C@@H]23)[C@@H]2C(C)(C)[C@]12OC(=O)CCC", "note": "[PDBu, phorbol 12,13 dibutyrate, reference compound]", "values": [{"measurement": "localization of DsRed-derived fluorescence", "setting": "[1]", "result": "locally observed"}, {"measurement": "localization of NBD-derived fluorescence", "setting": "[2]; CHO.K1 cells treated for 10 min, final concentration 10 μM", "result": "locally observed"}]}, {"compound": "ALKKELEAAKKELEALKKELAGGCGGALEKELEALEKEAEALEKELA [Example 1]", "values": [{"measurement": "spectral changes of probe peptide as tag peptide was added", "setting": "[3]", "result": "substantially the same spectral changes as in HEPES buffer"}, {"measurement": "fluorescence wavelength ultimately shifted to on addition of tag peptide", "setting": "[4]", "result": 505, "unit": "nm"}, {"measurement": "fluorescence intensity at 505 nm relative to that measured in the absence of the tag peptide", "setting": "[4]; in the presence of 1 equivalent of tag peptide", "result": 18, "unit": "times"}, {"measurement": "comparison of fluorescence intensity among Examples 1 to 3", "setting": "[4]; overlapped spectra of highest peaks, FIG. 5", "result": "highest fluorescence intensity"}, {"measurement": "Kd", "setting": "[4]", "result": 17.5, "unit": "nM"}, {"measurement": "probe peptides that formed an α-helix structure", "setting": "[5]", "result": 53, "unit": "%"}, {"measurement": "tag peptides that formed an α-helix structure", "setting": "[5]", "result": 58, "unit": "%"}, {"measurement": "tags and probes that formed an α-helix structure in the tag-probe mixture", "setting": "[5]", "result": 71, "unit": "%"}]}, {"compound": "ALKKELEAGKKELEALKKELAGGCGGALEKELEALEKEGEALEKELA [Example 3]", "values": [{"measurement": "fluorescence wavelength ultimately shifted to on addition of tag peptide", "setting": "[4]", "result": 526, "unit": "nm"}, {"measurement": "Kd", "setting": "[4]", "result": 755, "unit": "nM"}, {"measurement": "probe peptides that formed an α-helix structure", "setting": "[5]", "result": 53, "unit": "%"}, {"measurement": "tag peptides that formed an α-helix structure", "setting": "[5]", "result": 18, "unit": "%"}, {"measurement": "tags and probes that formed an α-helix structure in the tag-probe mixture", "setting": "[5]", "result": 41, "unit": "%"}]}, {"compound": "ALKKELEALKKELEALKKELAGGCGGALEKELEALEKELEALEKELA [Example 2]", "values": [{"measurement": "fluorescence wavelength ultimately shifted to on addition of tag peptide", "setting": "[4]", "result": 516, "unit": "nm"}, {"measurement": "Kd", "setting": "[4]", "result": 24.3, "unit": "nM"}, {"measurement": "probe peptides that formed an α-helix structure", "setting": "[5]", "result": 53, "unit": "%"}, {"measurement": "tag peptides that formed an α-helix structure", "setting": "[5]", "result": 81, "unit": "%"}, {"measurement": "tags and probes that formed an α-helix structure in the tag-probe mixture", "setting": "[5]", "result": 78, "unit": "%"}]}, {"compound": "ClAc-{Gly}{Ala-Leu-Lys-Lys-Lys-Leu-Glu}{Ala-Leu-Lys-Lys-Lys-Dap(NBD)-Glu}{Ala-Leu-Lys-Lys-Lys-Leu-Ala} [Example 7]", "values": [{"measurement": "yield of the crosslink reaction", "setting": "[6]", "result": "at least 80%"}, {"measurement": "NBD-derived fluorescence in cells", "setting": "[2]; 1 μM probe, permeabilized CHO.K1 cells, around 510 nm", "result": "increase in fluorescence intensity"}]}]}
